# According to patent US20230078913A1, “ANDROGEN RECEPTOR MODULATORS AND METHODS FOR USE AS PROTEOLYSIS TARGETING CHIMERA LIGANDS” (ESSA Pharma, Inc., priority 2019, published 2023):
# pIC50: −log10 of the molar value.
# System: androgen receptor (androgen-induced PSA-luciferase activity in LNCaP cells)
# Experiment: Androgen-induced PSA (6.1 kb)-luciferase reporter assay in LNCaP cells
# Format: cell-based
# Details: Homo sapiens; LNCaP cells transiently transfected with PSA (6.1 kb)-luciferase reporter; R1881 (1 nM), 24 h; normalized to maximum androgen-induced activity (vehicle only)
# Description: To determine the IC50, treatments were normalized to the maximum activity with androgen-induction (in the absence of test compounds, vehicle only) (Table 1).
# Luciferase Assay: Lysates were thawed on ice then collected into V-bottom 96-well tissue culture plates. Lysates were centrifuged at 4° C. for 5 minutes at 4000 rpm. To measure luminescence of LNCaP cell lysates the Firefly Luciferase Assay System (Promega) was employed, according to manufacturer's protocol.
# Comparisons between treatment and control groups were compared using Two-Way ANOVA with post-hoc Dunnett's and Tukey's tests. Differences were considered statistically significant at P values less than 0.05. Densitometric quantification of relative AR levels was determined by Image.
structure (smiles),measurement,value
C[C@H](Oc1ccc(C(C)(C)c2cc(Cl)c(OCCCl)c(C#N)c2)cc1)c1ccnc(NS(C)(=O)=O)n1 [Example A170],pIC50,6.19
